Source: US20100248390A1, “COMPOSITIONS AND METHODS FOR IDENTIFYING LIGANDS OF ODORANT RECEPTORS” (DUKE UNIVERSITY, priority 2009, published 2010)
Like-named read-outs stand apart in the source and are kept apart here.

Key:
[1] = biological target: T1, human odorant receptors (ORs) (Homo sapiens, UniProt Q8WZ94); assay: CRE-luciferase assay of odorant receptor activation (Dual-Glo, Hana3A cells, RTP1S), dose-response EC50; assay type: cell-based; conditions: receptor OR5P3
T1 construct: OR open reading frames were amplified from genomic DNA; expressed in transfected cells; host or cells: Hana3A cells, co-transfected with RTP1S, CRE-luciferase and pRL-SV40
T1 sequence (Q8WZ94 1-311): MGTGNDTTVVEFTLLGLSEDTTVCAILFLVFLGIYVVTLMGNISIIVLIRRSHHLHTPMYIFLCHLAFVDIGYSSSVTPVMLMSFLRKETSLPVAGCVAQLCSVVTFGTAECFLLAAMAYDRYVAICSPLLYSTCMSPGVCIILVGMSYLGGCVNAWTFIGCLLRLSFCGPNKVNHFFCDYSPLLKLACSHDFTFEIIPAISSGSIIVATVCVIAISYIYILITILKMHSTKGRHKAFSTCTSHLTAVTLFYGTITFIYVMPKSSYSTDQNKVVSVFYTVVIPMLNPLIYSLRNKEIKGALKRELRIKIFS
Procedure, shortened: (§1)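 Hana3A cells were co-transfected with Rho-tagged OR, RTP1S, CRE-luciferase and pRL-SV40, then exposed to odorant in CD293 medium for 4 hrs at 37° C. Firefly luminescence was divided by Renilla and normalized as (LN−Lmin)/(Lmax−Lmin) per plate set. Each dose was tested at least three times, and EC50 came from sigmoidal fits.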

[2] = biological target: T2, human odorant receptors (ORs) (Homo sapiens, UniProt O76002); assay: as above; assay type: cell-based
T2 construct: OR open reading frames were amplified from genomic DNA; expressed in transfected cells; host or cells: Hana3A cells, co-transfected with RTP1S, CRE-luciferase and pRL-SV40
T2 sequence (O76002 1-312): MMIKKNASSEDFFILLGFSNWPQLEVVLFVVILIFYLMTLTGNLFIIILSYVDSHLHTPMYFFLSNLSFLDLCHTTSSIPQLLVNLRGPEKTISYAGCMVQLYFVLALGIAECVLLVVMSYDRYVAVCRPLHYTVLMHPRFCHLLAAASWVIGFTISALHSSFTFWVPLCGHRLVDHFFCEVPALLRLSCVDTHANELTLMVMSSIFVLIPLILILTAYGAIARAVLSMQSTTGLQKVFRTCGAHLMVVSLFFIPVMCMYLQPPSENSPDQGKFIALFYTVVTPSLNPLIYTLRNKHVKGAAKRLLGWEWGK
Procedure, shortened: as §1

[3] = read-out: log EC50 (Table 4 value), OR5P3 (converted)

| Compound | log EC50, OR5P3 ([1]; 0 = no response) | EC50 [1, 3] | further results |
| --- | --- | --- | --- |
| C=C(C)[C@H]1CC=C(C)C(=O)C1 [(+)-Carvone] | −5.173 | – | – |
| C=C(C)C1CC=C(C)C(=O)C1 (single isomer, unassigned; (-)) [(−)-Carvone] | −4.645 | – | – |
| CCCCCCCO [1-Heptanol] | – | – | EC50 ([2]; receptor OR2J2, 0 = no response, read-out: log EC50, OR2J2 (converted)): 536 µM; EC50 ([1]; 0 = no response, read-out: log EC50, OR5P3 (converted)): 1090 µM |
| O=c1ccc2ccccc2o1 [Coumarin] | – | 5.62 µM | EC50 ([2]; receptor OR2J2, read-out: log EC50 (Table 4 value), OR2J2 (converted)): 274 µM |
| CC(=O)c1ccccc1 [Acetophenone] | – | 126 µM | – |
| CCCCCCCCCCO [1-Decanol] | – | – | EC50 [2]: 384 µM |
